{"source": "patent US20230340011A1", "about": "(Asteroid Therapeutics, priority 2022, published 2023)", "key": {"[1]": {"molecular_target": "LXRβ (Homo sapiens (Human), UniProt P55055)", "sequence (P55055 whole entry, the tested form may be a part)": "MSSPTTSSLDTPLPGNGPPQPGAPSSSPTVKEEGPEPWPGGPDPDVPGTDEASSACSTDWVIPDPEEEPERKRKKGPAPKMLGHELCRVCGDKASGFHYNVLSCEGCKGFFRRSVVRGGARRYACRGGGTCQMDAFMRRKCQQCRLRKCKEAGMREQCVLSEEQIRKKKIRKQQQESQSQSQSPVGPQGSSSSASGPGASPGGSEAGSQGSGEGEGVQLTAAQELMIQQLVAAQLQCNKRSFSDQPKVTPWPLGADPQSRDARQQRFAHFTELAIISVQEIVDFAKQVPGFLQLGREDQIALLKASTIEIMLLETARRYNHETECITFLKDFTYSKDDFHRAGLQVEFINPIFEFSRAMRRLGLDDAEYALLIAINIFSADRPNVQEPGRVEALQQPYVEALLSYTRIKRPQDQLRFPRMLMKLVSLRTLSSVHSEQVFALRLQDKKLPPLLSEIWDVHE", "experiment": "In vitro assay LXRβ: PathHunter NHR CHO cells, LXRβ / Steroid Receptor Co-activator Peptide enzyme fragment complementation", "assay_type": "cell-based", "settings": "PathHunter NHR CHO cells, full-length human LXRβ and SRCP, chemiluminescent signal; read-out: LXRβ PPI", "summary_of_the_method": "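Co-activator recruitment measured by chemiluminescence after signal generation. The CHO line carries full-length human LXRβ tagged with ProLink and an SRCP–enzyme acceptor fusion in the nucleus; cells sat overnight at 37° C before testing, in charcoal-dextran filtered serum medium with 1% final vehicle.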"}, "[2]": {"molecular_target": "SREBP-2 (Homo sapiens (Human), UniProt Q12772)", "experiment": "In vitro assay SREBP-2: PathHunter U2OS SREBP-2 Nuclear Translocation Cell Line, U18666A-stimulated", "assay_type": "cell-based", "settings": "PathHunter U2OS SREBP-2 nuclear translocation cells, U18666A 10 μM, overnight (16 hours)"}}}
{"smiles": "C[C@H](CCC(=O)N(C)CCc1nccs1)[C@H]1CC[C@H]2[C@@H]3CC=C4C[C@@H](O)CC[C@]4(C)[C@H]3CC[C@]12C", "note": "[Example 545, (R)-4-((3S,8S,9S,10R,13R,14S,17R)-3-hydroxy-10,13-dimethyl-2,3,4,7,8,9,10,11,12,13,14,15,16,17-tetradecahydro-1H-cyclopenta[a]phenanthren-17-yl)-N-methyl-N-(2-(thiazol-2-yl)ethyl)pentanamide]", "values": [{"measurement": "EC50", "setting": "[1]", "result": "250 to 1000", "unit": "nM"}, {"measurement": "IC50", "setting": "[2]", "result": "250 to 1000", "unit": "nM"}]}
{"smiles": "CON(CCN)C(=O)CC[C@@H](C)[C@H]1CC[C@H]2[C@@H]3CC=C4C[C@@H](O)CC[C@]4(C)[C@H]3CC[C@]12C", "note": "[Example 64, (R)—N-(2-aminoethyl)-4-((3S,8S,9S,10R,13R,14S,17R)-3-hydroxy-10,13-dimethyl-2,3,4,7,8,9,10,11,12,13,14,15,16,17-tetradecahydro-1H-cyclopenta[a]phenanthren-17-yl)-N-methoxypentanamide]", "values": [{"measurement": "EC50", "setting": "[1]", "result": "< 250", "unit": "nM"}, {"measurement": "IC50", "setting": "[2]", "result": "250 to 1000", "unit": "nM"}]}
{"smiles": "CNC(=O)c1cccnc1OC[C@@H](C)[C@H]1CC[C@H]2[C@@H]3CC=C4C[C@@H](O)CC[C@]4(C)[C@H]3CC[C@]12C", "note": "[Example 253, 2-((S)-2-((3S,8S,9S,10R,13S,14S,17R)-3-hydroxy-10,13-dimethyl-2,3,4,7,8,9,10,11,12,13,14,15,16,17-tetradecahydro-1H-cyclopenta[a]phenanthren-17-yl)propoxy)-N-methylnicotinamide]", "values": [{"measurement": "EC50", "setting": "[1]", "result": "> 10000", "unit": "nM"}, {"measurement": "IC50", "setting": "[2]", "result": "< 250", "unit": "nM"}]}
{"smiles": "Cc1cncnc1N1CCN(C(=O)CC[C@@H](C)[C@H]2CC[C@H]3[C@@H]4CC=C5C[C@@H](O)CC[C@]5(C)[C@H]4CC[C@]23C)CC1", "note": "[Example 508, (R)-4-((3S,8S,9S,10R,13R,14S,17R)-3-hydroxy-10,13-dimethyl-2,3,4,7,8,9,10,11,12,13,14,15,16,17-tetradecahydro-1H-cyclopenta[a]phenanthren-17-yl)-1-(4-(5-methylpyrimidin-4-yl)piperazin-1-yl)pentan-1-one]", "values": [{"measurement": "EC50", "setting": "[1]", "result": "> 10000", "unit": "nM"}, {"measurement": "IC50", "setting": "[2]", "result": "< 250", "unit": "nM"}]}
{"smiles": "C[C@H](CCC(=O)N1CCN(c2ccnc(OCCO)n2)CC1)[C@H]1CC[C@H]2[C@@H]3CC=C4C[C@@H](O)CC[C@]4(C)[C@H]3CC[C@]12C", "note": "[Example 564, (4R)-4-[(1R,3aS,3bS,7S,9aR,9bS,11aR)-7-hydroxy-9a,11a-dimethyl-1H,2H,3H,3aH,3bH,4H,6H,7H,8H,9H,9aH,9bH,10H,11H,11aH-cyclopenta[a]phenanthren-1-yl]-1-{4-[2-(2-hydroxyethoxy)pyrimidin-4-yl]piperazin-1-yl}pentan-1-one]", "values": [{"measurement": "EC50", "setting": "[1]", "result": "> 10000", "unit": "nM"}, {"measurement": "IC50", "setting": "[2]", "result": "< 250", "unit": "nM"}]}
{"smiles": "Cc1cc(CC[C@@H](C)[C@H]2CC[C@H]3[C@@H]4CC=C5C[C@@H](O)CC[C@]5(C)[C@H]4CC[C@]23C)ncn1", "note": "[Example 189, (1R,3aS,3bS,7S,9aR,9bS,11aR)-9a,11a-dimethyl-1-[(2R)-4-(6-methylpyrimidin-4-yl)butan-2-yl]-1H,2H,3H,3aH,3bH,4H,6H,7H,8H,9H,9aH,9bH,10H,11H,11aH-cyclopenta[a]phenanthren-7-ol]", "values": [{"measurement": "EC50", "setting": "[1]", "result": "1000 to 10000", "unit": "nM"}, {"measurement": "IC50", "setting": "[2]", "result": "< 250", "unit": "nM"}]}
{"smiles": "COc1cccc(CC[C@@H](C)[C@H]2CC[C@H]3[C@@H]4CC=C5C[C@@H](O)CC[C@]5(C)[C@H]4CC[C@]23C)n1", "note": "[Example 168, (3S,8S,9S,10R,13R,14S,17R)-17-((R)-4-(6-methoxypyridin-2-yl)butan-2-yl)-10,13-dim ethyl-2,3,4,7,8,9,10,11,12,13,14,15,16,17-tetradecahydro-1H-cyclopenta[a]phenanthren-3-ol]", "values": [{"measurement": "EC50", "setting": "[1]", "result": "> 10000", "unit": "nM"}, {"measurement": "IC50", "setting": "[2]", "result": "250 to 1000", "unit": "nM"}]}
{"smiles": "CCC1(O)CCN(C(=O)C(=O)O[C@@H](C)[C@H]2CC[C@H]3[C@@H]4CC=C5C[C@@H](O)CC[C@]5(C)[C@H]4CC[C@]23C)CC1", "note": "[Example 200, (S)-1-((3S,8S,9S,10R,13S,14S,17S)-3-hydroxy-10,13-dimethyl-2,3,4,7,8,9,10,11,12,13,14,15,16,17-tetradecahydro-1H-cyclopenta[a]phenanthren-17-yl)ethyl 2-(4-ethyl-4-hydroxypiperidin-1-yl)-2-oxoacetate]", "values": [{"measurement": "EC50", "setting": "[1]", "result": "1000 to 10000", "unit": "nM"}, {"measurement": "IC50", "setting": "[2]", "result": "< 250", "unit": "nM"}]}
